Measured values published in patent US8318792B2, “Therapeutic agent for amyotrophic lateral sclerosis” (Nippon Medical School Foundation, priority 2006, dated 2012).

Key:
[1] = test system: G1H-G93A transgenic mice; assay: Clinical symptomatological evaluation (day of onset, survival period, disease period, stage periods); format: in vivo, mouse; conditions: for time periods for the respective stages in comparison to placebo group / disease period extending effect in comparison to placebo group / onset delaying effect in comparison to placebo group / survival period extending effect in comparison to placebo group: Mann-Whitney's U test; for disease period extending effect in comparison to placebo group / onset delaying effect in comparison to placebo group / survival period extending effect in comparison to placebo group: log-rank test; for day of onset / disease period / survival period / time period of clinical symptomatological stage 1 / time period of clinical symptomatological stage 2 / time period of clinical symptomatological stage 3 / time period of clinical symptomatological stage 4 / time period of clinical symptomatological stage 5: average±SD
Method: 1) The procedure of concentration adjustment, and the amount and the procedure of administration of the compound (a) were as described below. As a base, 0.5% methylcellulose is prepared. 5 mg of the compound (a) is pulverized in an agate mortar, and then a small amount of 0.5% methylcellulose is added to form a complete suspension. Subsequently, a small amount of 0.5% methylcellulose is added gradually, so that finally 5 mg of the compound (a) is suspended in 10 mL of 0.5% methylcellulose. A sample of 5 mg of compound (a)/10 mL of 0.5% methylcellulose (5 mg/10 mL) was prepared by the above-described procedure, and thus the compound (a) was orally administered once a day in a dose of 5 mg per kg of the mouse body weight (5 mg/kg).
As the experimental animal, male transgenic mice over-expressing a high copy number (25 copies) of mutated human SOD1 gene with a G93A point mutation, i.e., B6SJL-TgN [SOD1-G93A]1Gur (G1H-G93A transgenic mice, JR2726; Hemizygote) (Gurney M E, et al., Science, 264, 1772-1775, 1994), were purchased from Jackson Laboratory (Bar Harbor, USA) and used. At the same time, wild-type male mice from the same litter, B6SJL-TgN[SOD1-G93A]1Gur (Wild-type), were also purchased from Jackson Laboratory and used.
The mice were subjected to a clinical symptomatological evaluation everyday. The clinical symptomatological evaluation was performed from one week after the arrival from Jackson Laboratory. […] The day of onset, the survival period and the disease period were indicated by the number of days. In regard to the indication of the number of days of the disease period, one day (one disease day) corresponds to within 24 hours from the onset (the “onset” is determined by the observation of the clinical symptomatological evaluation stage 1), and two days (two disease days) corresponds to more than 24 hours after and within 48 hours from the onset. Subsequent disease days after the onset were determined in the same manner.
The mice were divided into seven experimental groups, to which a placebo, the compound (a), compound (b), compound (c) or allopurinol was administered. That is, the seven groups consist of: an experimental group administered with placebo; a treatment experimental group administered with compound (a) before onset; a treatment experimental group administered with compound (a) after onset; a treatment experimental group administered with compound (b) before onset; a treatment experimental group administered with compound (c) before onset; a treatment experimental group administered with compound (c) after onset; and a treatment group administered with allopurinol before onset. Details of the respective groups will be described in the following.
Ten G1H-G93A transgenic mice were used. From the 80th day after birth, 5 mg/kg of the compound (a) was orally administered everyday. […]
Ten G1H-G93A transgenic mice were used. From the 80th day after birth, 5 mg/kg of the compound (b) was orally administered everyday.
Ten G1H-G93A transgenic mice were used. From the 80th day after birth, 5 mg/kg of the compound (c) was orally administered everyday. […]
Ten G1H-G93A transgenic mice were used. From the 80th day after birth, 5 mg/kg of allopurinol was orally administered everyday.
In regard to the results of the clinical symptomatological evaluation, the day of onset, the survival period (days taken to show quadriplegia and to reach the moribund state), the disease period (days taken to show quadriplegia and to reach the moribund state, from the day of onset), and the time periods for the respective stages of the clinical symptomatological evaluation, were indicated by the average±standard deviation. In regard to the results of the exercise tolerance test, the score values of the respective exercise tolerance tests, including the extension reflex test, inclined plane test, footprint test, rotarod test and beam balance test, were indicated by the average±standard deviation. […]

[2] = test system: G1H-G93A transgenic mice; assay: Exercise tolerance test: extension reflex test; format: in vivo, mouse; conditions: for Extension reflex test score: 5 mg/kg oral daily from 80th day (before onset), score 0-2; for effect in extension reflex test as compared to placebo group: 105th, 110th, 115th and 120th day, 5 mg/kg oral daily from 80th day after birth, Mann-Whitney's U test
Method: The following five kinds of exercise tolerance tests were conducted every fifth day from the 70th day after birth to evaluate the ability to exercise in the respective exercise tolerance tests. That is, the days for the exercise tolerance tests were every fifth days, such as the 70th day, 75th day, 80th day, 85th day and so on, after birth. The exercise tolerance tests were conducted throughout the survival period, and the post-mortem evaluation was based on the definitions of the following five kinds of exercise tolerance tests.
As for extension reflex, extension of the hindlimbs is normally observed when a mouse is suspended in the air by its tail.
The evaluation of extension reflex test of the mice was performed based on the following criteria: Score 0=Extension reflex is recognized in both of the hindlimbs; Score 1=Extension reflex is recognized only one hindlimb; and Score 2=Extension reflex is not recognized in both of the hindlimbs. The post-mortem evaluation of the extension reflex test is defined as score 2.

[3] = 5 mg/kg oral daily from 80th day after birth (before onset)
[4] = 5 mg/kg oral daily from the day of onset (after onset)
[5] = 5 mg/kg oral once a day from 80th day after birth (before onset)
[6] = 5 mg/kg oral once a day from the onset (after onset)

Compound	time periods for the respective stages in comparison to placebo group [1, 3]	disease period extending effect in comparison to placebo group [1, 3]	onset delaying effect in comparison to placebo group [1, 3]	survival period extending effect in comparison to placebo group [1, 3]	day of onset [1, 5]	disease period [1, 5]	survival period [1, 5]	time period of clinical symptomatological stage 1 [1, 5]	time period of clinical symptomatological stage 2 [1, 5]	time period of clinical symptomatological stage 3 [1, 5]	time period of clinical symptomatological stage 4 [1, 5]	time period of clinical symptomatological stage 5 [1, 5]	Extension reflex test score ([2]; 70th day after birth, 5 mg/kg)	Extension reflex test score ([2]; 75th day after birth, 5 mg/kg)	Extension reflex test score ([2]; 80th day after birth, 5 mg/kg)	Extension reflex test score ([2]; 85th day after birth, 5 mg/kg)	Extension reflex test score ([2]; 90th day after birth, 5 mg/kg)	Extension reflex test score ([2]; 95th day after birth, 5 mg/kg)	Extension reflex test score ([2]; 100th day after birth, 5 mg/kg)	Extension reflex test score ([2]; 105th day after birth, 5 mg/kg)	further results
CC(C)(C)COc1ccc(-n2cc(C(=O)O)cn2)cc1C#N [compound (a), 1-[3-cyano-4-(2,2-dimethylpropoxy)phenyl]-1H-pyrazole-4-carboxylic acid]	extended period of respective stages with significant difference	significant extension of the disease period	significant delaying of the day of onset	significant extension of the survival period	113.0 ± 4.8 days	24.9 ± 3.1 days	136.9 ± 3.8 days	7.5±0.7 days	6.6±1.2 days	5.4±1.1 days	3.6±0.7 days	1.8±0.4 days	0.0±0.0	0.0±0.0	0.0±0.0	0.0±0.0	0.0±0.0	0.0±0.0	0.0±0.0	0.0±0.0	time periods for the respective stages in comparison to placebo group [1, 4]: extended period of stage 3 (P<0.05, Mann-Whitney's U test) and stage 4 (P<0.05, Mann-Whitney's U test) with significant differences; disease period extending effect in comparison to placebo group [1, 4]: significant extension of the disease period; survival period extending effect in comparison to placebo group [1, 4]: significant extension of the survival period; day of onset [1, 6]: 99.8 ± 2.4 days; disease period [1, 6]: 23.9 ± 1.7 days; survival period [1, 6]: 122.7 ± 2.1 days; time period of clinical symptomatological stage 1 [1, 6]: 7.3±0.7 days; time period of clinical symptomatological stage 2 [1, 6]: 6.0±0.7 days; time period of clinical symptomatological stage 3 [1, 6]: 5.3±0.9 days; time period of clinical symptomatological stage 4 [1, 6]: 3.5±0.5 days; time period of clinical symptomatological stage 5 [1, 6]: 1.8±0.4 days; effect in extension reflex test as compared to placebo group [2]: significant effects; Extension reflex test score ([2]; 110th day after birth, 5 mg/kg): 0.1±0.3; Extension reflex test score ([2]; 115th day after birth, 5 mg/kg): 0.5±0.5; Extension reflex test score ([2]; 120th day after birth, 5 mg/kg): 0.9±0.7; Extension reflex test score ([2]; 125th day after birth, 5 mg/kg): 1.5±0.5; Extension reflex test score ([2]; 130th day after birth, 5 mg/kg): 1.9±0.3; Extension reflex test score ([2]; 135th day after birth, 5 mg/kg): 2.0±0.0; Extension reflex test score ([2]; 140th day after birth, 5 mg/kg): 2.0±0.0
N#Cc1cc(-c2n[nH]c(-c3ccncc3)n2)ccn1 [compound (b), 4-(5-pyridin-4-yl-1H-[1,2,4]triazol-3-yl)pyridine-2-carbonitrile]	extended period of the respective stages with significant difference	significant extension of the disease period	significant delaying of the day of onset	significant extension of the survival period	111.6 ± 3.7 days	24.3 ± 3.4 days	134.9 ± 3.4 days	7.4±0.7 days	6.4±1.2 days	5.3±1.2 days	3.5±0.5 days	1.7±0.5 days	0.0±0.0	0.0±0.0	0.0±0.0	0.0±0.0	0.0±0.0	0.0±0.0	0.0±0.0	0.0±0.0	effect in extension reflex test as compared to placebo group [2]: significant effects; Extension reflex test score ([2]; 110th day after birth, 5 mg/kg): 0.1±0.3; Extension reflex test score ([2]; 115th day after birth, 5 mg/kg): 0.5±0.5; Extension reflex test score ([2]; 120th day after birth, 5 mg/kg): 1.3±0.5; Extension reflex test score ([2]; 125th day after birth, 5 mg/kg): 1.8±0.4; Extension reflex test score ([2]; 130th day after birth): 2.0 ± 0.0; Extension reflex test score ([2]; 135th day after birth): 2.0 ± 0.0; Extension reflex test score ([2]; 140th day after birth): 2.0 ± 0.0; Extension reflex test score ([2]; from the 130th day to 140th day after birth): 2.0±0.0
